ChEMBL document CHEMBL2440046, “Anabaseine analogues as modulators of nicotinic acetylcholine receptor” (ACS Med Chem Lett, 2013)

How the values were obtained:
[1] = target: Neuronal acetylcholine receptor subunit alpha-7 (Rattus norvegicus, UniProt Q05941); assay: Displacement of [125I]-alpha-bungarotoxin from Sprague-Dawley rat brain alpha7 nAChR after 3 hrs by liquid scintillation counting analysis
[2] = target: Neuronal acetylcholine receptor; alpha4/beta2 (Rattus norvegicus, UniProt P09483+P12390); assay: Displacement of [3H]-cytisine from Sprague-Dawley rat brain alpha4beta2 nAChR after 4 hrs by liquid scintillation counting analysis
Sequence of Neuronal acetylcholine receptor; alpha4/beta2 (P09483 whole entry): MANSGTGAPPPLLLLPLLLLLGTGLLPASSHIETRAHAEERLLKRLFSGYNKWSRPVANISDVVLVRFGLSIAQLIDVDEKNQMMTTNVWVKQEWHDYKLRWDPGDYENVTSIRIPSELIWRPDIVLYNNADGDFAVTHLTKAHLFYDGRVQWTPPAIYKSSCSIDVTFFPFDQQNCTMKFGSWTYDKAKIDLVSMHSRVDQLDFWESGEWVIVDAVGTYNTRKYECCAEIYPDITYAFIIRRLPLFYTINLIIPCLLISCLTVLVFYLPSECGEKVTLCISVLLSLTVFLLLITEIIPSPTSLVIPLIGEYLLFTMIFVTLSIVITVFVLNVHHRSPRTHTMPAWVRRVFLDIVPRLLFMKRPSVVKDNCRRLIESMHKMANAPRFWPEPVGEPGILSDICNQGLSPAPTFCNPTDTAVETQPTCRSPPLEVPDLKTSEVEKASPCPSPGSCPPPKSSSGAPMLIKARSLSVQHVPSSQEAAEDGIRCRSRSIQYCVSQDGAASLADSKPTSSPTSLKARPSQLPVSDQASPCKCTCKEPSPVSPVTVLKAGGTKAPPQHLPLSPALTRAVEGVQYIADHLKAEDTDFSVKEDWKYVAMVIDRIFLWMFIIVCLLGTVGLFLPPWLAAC
Sequence of Neuronal acetylcholine receptor; alpha4/beta2 (P12390 whole entry): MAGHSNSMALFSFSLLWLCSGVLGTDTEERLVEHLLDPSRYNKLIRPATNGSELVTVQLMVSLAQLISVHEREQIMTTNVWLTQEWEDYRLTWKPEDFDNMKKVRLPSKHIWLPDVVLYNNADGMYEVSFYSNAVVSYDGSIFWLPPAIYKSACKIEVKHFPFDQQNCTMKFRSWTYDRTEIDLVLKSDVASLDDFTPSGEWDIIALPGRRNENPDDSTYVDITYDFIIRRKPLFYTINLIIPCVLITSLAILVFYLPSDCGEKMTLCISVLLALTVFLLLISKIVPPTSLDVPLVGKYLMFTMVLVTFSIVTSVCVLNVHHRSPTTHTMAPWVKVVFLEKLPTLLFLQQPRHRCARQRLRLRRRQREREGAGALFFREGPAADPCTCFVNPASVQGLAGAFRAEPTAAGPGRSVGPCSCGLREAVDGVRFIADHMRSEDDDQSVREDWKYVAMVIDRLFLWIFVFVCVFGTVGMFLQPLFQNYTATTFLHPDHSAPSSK

Sequence of Neuronal acetylcholine receptor subunit alpha-7 (Q05941 whole entry): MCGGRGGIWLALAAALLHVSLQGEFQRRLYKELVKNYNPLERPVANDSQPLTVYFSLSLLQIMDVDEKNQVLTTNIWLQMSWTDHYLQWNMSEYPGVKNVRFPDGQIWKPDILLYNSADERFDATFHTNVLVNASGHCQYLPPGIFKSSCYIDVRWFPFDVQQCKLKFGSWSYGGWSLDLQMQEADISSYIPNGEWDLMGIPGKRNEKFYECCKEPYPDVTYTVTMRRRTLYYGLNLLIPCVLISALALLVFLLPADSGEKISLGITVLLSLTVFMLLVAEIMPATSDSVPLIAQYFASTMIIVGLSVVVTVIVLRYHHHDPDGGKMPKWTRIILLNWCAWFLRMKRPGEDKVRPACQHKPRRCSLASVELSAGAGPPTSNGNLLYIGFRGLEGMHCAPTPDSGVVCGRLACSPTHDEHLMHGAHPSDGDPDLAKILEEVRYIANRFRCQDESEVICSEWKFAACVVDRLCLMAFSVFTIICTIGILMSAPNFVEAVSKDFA

SMILES | Ki [1] [nM] | Ki [2] [nM]
Nc1ccc(CC2C(c3cccnc3)=N[C@H]3CC[C@@H]2C3)cc1 (stereo partly drawn) | 3.43 | 34.1
COc1ccc(CC2C(c3cccnc3)=N[C@H]3CC[C@@H]2C3)c(OC)c1 (stereo partly drawn) | 16.4 | 219
COc1ccc(CC2C(c3cccnc3)=N[C@@H]3CC[C@H]2C3)c(OC)c1 (stereo partly drawn) | 4400 | 347
Oc1ccc(CC2C(c3cccnc3)=N[C@H]3CC[C@@H]2C3)cc1 (stereo partly drawn) | 34.1 | 72.5
